Data as given in article PMC5450539, “Anti-Inflammatory Activity and Structure-Activity Relationships of Brominated Indoles from a Marine Mollusc” (Marine Drugs, 2017).
Structures can show the parent of a compound that is named as a salt. Where two headings read alike, the source gives them in different places.

Tests used:
NO production = tested on: NO production; set-up: method as in Matheus et al. [37]; conditions: ref Matheus et al. [37]; cited from earlier work
PGE2 = tested on: PGE2; set-up: method as in Matheus et al. [37]; conditions: ref Matheus et al. [37]; cited from earlier work
[1] = tested on: RAW264.7 mouse macrophage; assay: Crystal violet cytotoxicity assay, RAW264.7; conditions: 24 h incubation; max test concentration 50 µg/mL; > = <50% reduction in viability at max, ~ = close to 50%
Method: (§1) All extract/compounds were dissolved in DMSO and tested at 5 different concentrations of 50, 10, 2, 0.4, and 0.08 μg/mL for all anti-inflammatory assays unless otherwise noted. The final concentration of DMSO was 0.35% v/v for extracts and compounds. All samples were tested in triplicate at each concentration and each assay was independently repeated at least 3 times. The concentrations used for the cytotoxicity assays were 50, 25, 12.5, 6.25. and 3.125 μg/mL.
(§2) To check for cytotoxicity of the extracts and compounds against RAW264.7 mouse macrophage and 3T3 ccl-92 mouse fibroblast cell lines, the crystal violet cytotoxicity test was used according to the published protocol. In brief, RAW264.7 cells were seeded with a density of 2 × 10^4 cells/well in a 96-well plate and then incubated for 18–24 h. The following day the compounds/extracts were added and then incubated for 24 h before the media was aspirated and the cells washed twice in a gentle stream of water. After removing the water, 50 µL of 0.5% crystal violet staining solution were added and the cells were incubated for 20 min at room temperature. The plate was then washed 4 times with water and air dried for 2 h. Finally, 200 μL of methanol was added to each well and incubated for 20 min at room temperature on a rocker. This was followed by measuring the optical density at 570 nm with a plate reader Anthos Zenyth 200rt (Anthos Labtec Instruments, Heerhugowaard, The Netherlands). Chlorambucil was used as a positive control.

[2] = Crystal violet cytotoxicity assay, RAW264.7; conditions: mouse
Method: as §1, §2

TNFα production = assay: TNF-alpha inhibition assay (ELISA) in LPS-stimulated RAW264.7 macrophages; format: cell-based, mouse; conditions: for IC50: max test concentration 50 µg/mL, read-out: TNFα IC50
Method: The amount of TNFα was quantified in cell culture media using murine TNFα ELISA kits (BD bioscience). In brief, the RAW264.7 mouse macrophages (6 × 10^5 cells/mL) were stimulated with LPS (100 ng/mL) 1 h after treatment with several concentrations of extracts (0.08–50 μg/mL). After 18 h, the supernatant was collected and TNFα production was measured by reading the absorbance at 450 nm wavelength on an Anthos Zenyth 200rt microplate reader (Anthos Labtech Instruments). Dexamethasone at a concentration of 2.5 μM was used as a positive control, with a negative control of 0.35% DMSO.
(§3) All data were processed in Microsoft Office Excel 2013 (MS) first to obtain descriptive statistics. One-way Analysis of Variance (ANOVA) followed by Dunnett’s multiple comparisons test was performed using GraphPad Prism version 6.00 for Windows (GraphPad Software, La Jolla, CA, USA, www.graphpad.com), with p < 0.05 considered significant. The inhibitory concentration responsible for a 50% reduction in cell viability or production of inflammatory markers (IC50) was calculated using the regression analysis, Probit in SPSS v21.

[3] = tested on: nitric oxide (NO) production; assay: NO inhibition assay (Greiss) in LPS-stimulated RAW264.7 macrophages; format: cell-based, mouse; conditions: for IC50: read-out: NO IC50; for NO inhibitory activity (in words): LPS-stimulated RAW264.7, up to 50 µg/mL; for lowest concentration with significant inhibition of NO production: significant vs DMSO control; for reduction of NO production: 50 µg/mL (maximum test concentration), relative to DMSO control
Method: RAW264.7 macrophages were incubated 1 h with extracts/compounds prior to the addition of LPS. […] Then, 20 h after the addition of LPS, the supernatant was collected. […] The plates were incubated for 15–20 min in the dark, then read at 550 nm wavelength on an Anthos Zenyth 200rt (Anthos Labtec Instruments). Sodium nitrite was used to prepare a standard curve to quantify the nitrite from the absorbance readings in this assay. All data were processed in Microsoft Office Excel 2013 (MS) first to obtain descriptive statistics. One-way Analysis of Variance (ANOVA) followed by Dunnett’s multiple comparisons test was performed using GraphPad Prism version 6.00 for Windows (GraphPad Software, La Jolla, CA, USA, www.graphpad.com), with p < 0.05 considered significant.

[4] = tested on: 3T3 ccl-92 mouse fibroblast; assay: Crystal violet cytotoxicity assay, 3T3 ccl-92; format: cell-based; conditions: 24 h incubation; max test concentration 50 µg/mL; > = <50% reduction in viability at max
Method: as §1, §2

PGE2 production = assay: PGE2 inhibition assay (ELISA) in calcium ionophore-stimulated 3T3 ccl-92 fibroblasts; format: cell-based, mouse; conditions: for IC50: calcium ionophore-stimulated 3T3 ccl-92, max test concentration 50 µg/mL
Method: The levels of PGE2 were measured in cell media using a Cayman Prostaglandin E2 Express ELISA Kit (Cayman Chemical, Ann Arbor, MI, USA) according to the manufacturer’s instructions. In brief, the 3T3 ccl-92 fibroblasts (1 × 10^5 cells/mL) were grown overnight in a 96-well plate and then treated with extracts/compounds 3 h before being stimulated with Calcium ionophore (50 μM). After 20 min, supernatants were collected and PGE2 production was quantified by measuring the absorbance at 405 nm wavelength with an Anthos Zenyth 200rt (Anthos Labtech Instruments). Indomethacin at a concentration of 100 μM was used as a positive control and ~0.5% DMSO as a negative control.
as §3

NFκB translocation = assay: Assessment of NFκB translocation in LPS-stimulated RAW264.7; format: cell-based; conditions: Mus musculus, RAW264.7, 40 µg/mL, LPS-stimulated RAW264.7, relative to DMSO + LPS
Method: This assay was performed according to the published protocol in Olivera et al.. RAW264.7 mouse macrophages were seeded at 400,000 cells/well in 800 μL in 4-well chambered slides and incubated overnight. The cells were then incubated with the test samples (40 μg/mL HBG extract, 6-bromoisatin, or 6-bromoindole) for 1 h prior to stimulation with LPS (700 ng/mL) for 30 min. After stimulation, the cells were washed with PBS and fixed with 3.7% paraformaldehyde for 15 min. […] The cells were washed with PBS and incubated with rabbit anti-p65 NFκB antibody (1:500) and goat anti-mouse IκB (1:500) overnight at 4 °C. The following day, the cells were washed again three times with PBS and incubated for 1 h with goat-anti-rabbit IgG conjugated with Alexa Fluor 594 (1:1000) and donkey anti-mouse IgG conjugated with Alexa fluor 488 (1:1000) at room temperature. Finally, the cells were washed with PBS then mounted with Prolong mounting media containing DAPI before visualising using the Olympus Flouview FVi10 confocal microscope (Olympus, Tokyo, Japan). Using ImageJ (v1.50i, National Institutes of Health, Bethesda, MD, USA), an outline was drawn around each nucleus by adjusting the colour threshold of DAPI. Mean fluorescence inside the nucleus was measured, along with several adjacent background readings. The total corrected cellular fluorescence (TCCF) was calculated by applying the equation TCCF = integrated density − (area of selected cell × mean fluorescence of background readings). This TCCF was then used to calculate the %inhibition of the NFκB translocation against the positive control where the cells were treated with LPS in the presence of the Vehicle (0.35% DMSO v/v) in Microsoft Office Excel 2013 (Redmond, WA, USA).

[5] = Crystal violet cytotoxicity assay, 3T3 ccl-92; format: cell-based, mouse; conditions: mouse, 3T3 ccl-92 fibroblast cells; 3T3, 50 µg/mL, 24 h incubation, compared to DMSO-treated wells
Method: as §1, §2

[6] = Mus musculus, RAW264.7, LPS-stimulated RAW264.7
[7] = Mus musculus, RAW264.7, LPS-stimulated RAW264.7, max test concentration 50 µg/mL

O=C1Nc2cccc(Br)c2C1=O [4-bromoisatin]
inhibition of NO production (in words) (NO production): did not inhibit
inhibition of PGE2 (in words) (PGE2): did not inhibit

O=C1Nc2ccc(Br)cc2C1=O [5-bromoisatin]
Cytotoxicity RAW264.7 (test concentration which causes toxicity) [1]: ~221.21 µM
viability at 24 h, 50 µg/mL [2]: 55%
IC50 (TNFα production; LPS-stimulated RAW264.7, listed as 5-bromoisatin (9)): 38 µM
IC50 (TNFα production; [6]): 38.1 µM
inhibition at 50 µg/mL (TNFα production; Mus musculus, RAW264.7, 50 μg/mL): 100%
IC50 ([3]; LPS-stimulated RAW264.7, max test concentration 50 µg/mL, listed as 5-bromoisatin (9)): 152 µM
IC50 [3, 7]: 152 µM
IC50 [3, 6]: 34.3 µg/mL
Cytotoxicity 3T3 ccl-92 (test concentration which causes toxicity) [4]: NA (not active at maximum test concentration 50 µg/mL)

O=C1C(=C2Nc3cc(Br)ccc3C2=O)Nc2cc(Br)ccc21 [6,6 dibromoindigo]
NO inhibitory activity (in words) [3]: minimal inhibitory activity
IC50 [3, 7]: > 50 µg/mL
Cytotoxicity 3T3 ccl-92 (test concentration which causes toxicity) [4]: NA (not active at maximum test concentration 50 µg/mL)

O=C1Nc2cc(Br)ccc2C1=C1Nc2ccccc2C1=O [6-bromoindirubin]
viability at 24 h, 50 µg/mL [2]: 56.2%
NO inhibitory activity (in words) [3]: minimal inhibitory activity
IC50 [3, 7]: > 50 µg/mL

Brc1ccc2cc[nH]c2c1 [6-bromoindole]
Cytotoxicity RAW264.7 (test concentration which causes toxicity) [1]: >255.04 µM
viability at 24 h, 50 µg/mL [2]: 66.4%
IC50 (PGE2 production; Mus musculus, Fibroblast): 223 µM
IC50 (PGE2 production; listed as 6-bromoindole (11)): 223 µM
lowest concentration with significant PGE2 inhibition (PGE2 production; p < 0.05 vs solvent control): 0.08 µg/mL
IC50 (TNFα production; LPS-stimulated RAW264.7, listed as 6-bromoindole (11)): 150 µM
IC50 (TNFα production; [6]): 150 µM
IC50 [3, 7]: 187 µM
inhibition at 40 µg/mL (NFκB translocation): 60.7%
Cytotoxicity 3T3 ccl-92 (test concentration which causes toxicity) [4]: NA (not active at maximum test concentration 50 µg/mL)

O=C1Nc2cc(Br)ccc2C1=O [6-bromoisatin]
IC50 (PGE2 production; Mus musculus, Fibroblast): > 221 µM
inhibition at 0.08 µg/mL (PGE2 production; Mus musculus, Fibroblast, 0.08 µg/mL): 10%
inhibition at 50 µg/mL (PGE2 production; Mus musculus, Fibroblast, 50 μg/mL): 40%
IC50 (TNFα production; LPS-stimulated RAW264.7, listed as 6-bromoisatin (4)): 123 µM
IC50 (TNFα production; [6]): 123 µM
IC50 [3, 7]: 120 µM
IC50 [3, 6]: 27.1 µg/mL
lowest concentration with significant inhibition of NO production [3]: 0.4 µg/mL
inhibition at 40 µg/mL (NFκB translocation): 63.7%
Cytotoxicity 3T3 ccl-92 (test concentration which causes toxicity) [4]: NA (not active at maximum test concentration 50 µg/mL)

O=C1Nc2c(Br)cccc2C1=O [7-bromoisatin]
viability at 24 h, 50 µg/mL [2]: 81.9%
reduction of NO production [3]: less than 5%
IC50 [3, 7]: > 50 µg/mL
Cytotoxicity 3T3 ccl-92 (test concentration which causes toxicity) [4]: >221.21 µM
viability at 24 h, 50 µg/mL [5]: 80.9%

O=C1Nc2ccc(I)cc2C1=O [Compound 5-iodoisatin, 5-iodoisatin]
inhibition of NO production (in words) (NO production): did not inhibit
inhibition of PGE2 (in words) (PGE2): did not inhibit

CSc1[nH]c2cc(Br)ccc2c1OS(=O)(=O)O [Tyrindoxyl sulfate, tyrindoxyl sulfate]
IC50 [3, 7]: > 50 µg/mL
Cytotoxicity 3T3 ccl-92 (test concentration which causes toxicity) [4]: NA (not active at maximum test concentration 50 µg/mL)

C[C@@H]1C[C@H]2[C@@H]3CCC4=CC(=O)C=C[C@]4(C)[C@@]3(F)[C@@H](O)C[C@]2(C)[C@@]1(O)C(=O)CO [dexamethasone, reference compound]
inhibition at 2.5 µM ([3]; Mus musculus, RAW264.7, working concentration 2.5 µM, positive control): 56%

O=C1Nc2ccccc2/C1=C1/Nc2ccccc2C1=O [indirubin]
NO inhibitory activity (in words) [3]: minimal inhibitory activity
IC50 [3, 7]: > 50 µg/mL
Cytotoxicity 3T3 ccl-92 (test concentration which causes toxicity) [4]: NA (not active at maximum test concentration 50 µg/mL)

CSC1=Nc2cc(Br)ccc2C1=O [tyrindoleninone]
viability at 24 h, 50 µg/mL [2]: 84.1%
IC50 (TNFα production; LPS-stimulated RAW264.7, listed as Tyrindoleninone (3)): 157 µM
IC50 (TNFα production; [6]): 157 µM
IC50 [3, 7]: 103 µM
IC50 [3, 6]: 26.4 µg/mL
lowest concentration with significant inhibition of NO production [3]: 0.08 µg/mL
Cytotoxicity 3T3 ccl-92 (test concentration which causes toxicity) [4]: NA (not active at maximum test concentration 50 µg/mL)

CSC1(C2(SC)Nc3cc(Br)ccc3C2=O)Nc2cc(Br)ccc2C1=O (stereo not shown) [tyriverdin]
reduction of NO production [3]: less than 50%
IC50 [3, 7]: > 97.2 µM
lowest concentration with significant inhibition of NO production [3]: 10 µg/mL
Cytotoxicity 3T3 ccl-92 (test concentration which causes toxicity) [4]: NA (not active at maximum test concentration 50 µg/mL)
